Measured values from patent publication EP0719251B1, “BICYCLO (2.2.2) OCTANE DERIVATIVES CHOLECYSTOKININ AND/OR GASTRIN ANTAGONISTS” (JAMES BLACK FOUNDATION LIMITED, priority 1993, dated 1995).

Legend:
gastrin = target: T1, gastrin (Rattus norvegicus, UniProt P30553); assay: gastrin antagonist activity in an immature rat stomach assay; settings: isolated immature rat stomach, cumulative pentagastrin dose-response curves, acid secretion; for Kb: read-out: Gastrin pKB (converted)
T1 construct: The stomach was excised and flushed with ca. 1 ml of unbuffered physiological saline solution; from tissue; host or cells: isolated whole stomach of immature rats (33-50 g, ca. 21 days old)
T1 sequence (P30553 1-452): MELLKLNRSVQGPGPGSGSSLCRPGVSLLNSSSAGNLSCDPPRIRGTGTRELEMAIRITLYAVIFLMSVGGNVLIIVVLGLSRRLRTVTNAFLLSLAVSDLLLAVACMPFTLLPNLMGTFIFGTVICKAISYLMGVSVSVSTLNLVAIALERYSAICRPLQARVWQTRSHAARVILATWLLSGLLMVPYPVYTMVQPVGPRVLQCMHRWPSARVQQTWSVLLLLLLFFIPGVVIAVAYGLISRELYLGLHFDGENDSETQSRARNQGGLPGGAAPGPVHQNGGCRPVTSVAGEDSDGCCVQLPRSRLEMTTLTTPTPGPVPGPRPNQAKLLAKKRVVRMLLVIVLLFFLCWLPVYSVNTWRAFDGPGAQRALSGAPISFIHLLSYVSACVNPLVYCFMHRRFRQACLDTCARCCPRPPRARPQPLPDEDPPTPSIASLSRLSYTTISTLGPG
Method: The compounds of the examples were also tested for gastrin antagonist activity in an immature rat stomach assay. The procedure was as follows: The oesophagus of immature rats (33-50 g, ca. 21 days old) was ligated at the level of the cardiac sphincter and the duodenal sphincter was cannulated. The stomach was excised and flushed with ca. 1 ml of unbuffered physiological saline solution. The fundus was punctured and cannulated. A further 4-5 ml of unbuffered solution was flushed through the stomach to ensure the preparation was not leaking. […] The stomach was continuously perfused at a rate of 1 ml min^-1 with unbuffered solution gassed with 100% O2 with the perfusate passing over an internally referenced pH-electrode fixed 12 cm above the stomach. After 120 min of stabilisation the drugs were added directly to the serosal solution in the organ bath and after a further 60 min cumulative pentagastrin dose-response curves were started.

CCKB receptor = target: T2, CCKB receptor (Mus musculus, UniProt P56481); assay: radioligand binding assay at the CCKB receptor in mouse cortical membranes; settings: [125I]-CCK8S 200pM, 150 min at 21 ± 3°C; for Ki: read-out: CCKB pKi (converted)
T2 construct: The whole brains from male mice (CD1 22-25g; Charles River) were removed; from tissue; host or cells: cerebral cortex membranes of male CD1 mice
T2 sequence (P56481 1-453): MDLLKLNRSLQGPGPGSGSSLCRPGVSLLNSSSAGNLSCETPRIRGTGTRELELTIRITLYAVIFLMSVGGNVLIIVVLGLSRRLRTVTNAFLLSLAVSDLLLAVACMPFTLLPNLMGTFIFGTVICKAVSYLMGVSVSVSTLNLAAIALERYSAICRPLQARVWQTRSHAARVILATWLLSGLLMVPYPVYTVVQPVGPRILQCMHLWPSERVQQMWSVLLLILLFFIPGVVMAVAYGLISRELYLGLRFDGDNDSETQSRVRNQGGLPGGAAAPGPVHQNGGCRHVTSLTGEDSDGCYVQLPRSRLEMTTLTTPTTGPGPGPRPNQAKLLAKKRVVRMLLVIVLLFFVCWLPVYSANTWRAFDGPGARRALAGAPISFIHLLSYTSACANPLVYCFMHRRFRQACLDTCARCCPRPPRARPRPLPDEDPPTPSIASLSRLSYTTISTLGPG
Method: The compounds of the examples were tested for binding at the CCKB receptor in mouse cortical membranes by means of a radioligand binding assay. The procedure was as follows:
The whole brains from male mice (CD1 22-25g; Charles River) were removed and placed in ice-cold buffer (pH7.2 @ 21 ± 3°C) of the following composition (mM); 10 HEPES, 130 NaCl, 4.7 KCl, 5 MgCl2, 1 EDTA and containing 0.25g.l^-1 bacitracin. The cortex was dissected, weighed and homogenised in 40ml ice-cold buffer using a Teflon-in-glass homogeniser. The homogenate was centrifuged at 39,800g for 20 min at 4°C, the supernatant discarded and the pellet resuspended by homogenisation in fresh buffer. The homogenate was recentrifuged (39,800g; 20 min @ 4°C) and the final pellet was resuspended in HEPES buffer to give a tissue concentration of 2mg.ml^-1(original wet weight).
The assay was terminated by rapid filtration through pre-soaked Whatman GF/B filters using a Brandell Cell harvester. The filters were washed (3 x 3ml) with ice-cold 50mM Tris-HCl (pH7.4 @ 4°C) and bound radioactivity determined by counting (1 min.) in a gamma-counter.

O=C(NCC12CC3CC(CC(C3)C1)C2)C1C2c3ccccc3C(c3ccccc32)C1C(=O)N[C@@H](Cc1ccccc1)C(=O)Nc1ccccc1 (single isomer, unassigned) [Example 23, cis-7-(1S-(phenylaminocarbonyl)-2-phenylethylaminocarbonyl)-8-(1-adamantanemethylaminocarbonyl)-2,3,5,6-dibenzobicyclo[2.2.2]octane]
Kb (gastrin): 0.251 µM

O=C(O)c1cc(NC(=O)[C@H](Cc2ccc(O)cc2)NC(=O)C2C3c4ccccc4C(c4ccccc43)C2C(=O)NCC23CC4CC(CC(C4)C2)C3)cc(C(=O)O)c1 (single isomer, unassigned) [Example 24, cis-7-(1S-(3,5-dicarboxyphenylaminocarbonyl) -2-(4-hydroxyphenyl) -ethylaminocarbonyl)-8-(1-adamantanemethylaminocarbonyl) -2,3,5,6-dibenzobicyclo[2.2.2]octane]
Kb (gastrin): 0.00126 µM
Ki (CCKB receptor): 0.00158 µM

O=C(O)c1cc(NC(=O)[C@H](Cc2ccc(O)cc2)NC(=O)C2C3c4ccccc4C(c4ccccc43)C2C(=O)NCC23CC4CC(CC(C4)C2)C3)cc(C(=O)O)c1 (single isomer, unassigned) [Example 25, cis-7-(1S-(3,5-dicarboxyphenylaminocarbonyl)-2-(4-hydroxyphenyl)ethylaminocarbonyl)-8-(1-adaxantanemethylaminocarbonyl)-2,3,5,6-dibenzobicyclo[2.2.2]octane]
Kb (gastrin): 0.0631 µM

O=C(O)c1cc(NC(=O)[C@@H](Cc2ccc(O)cc2)NC(=O)C2C3c4ccccc4C(c4ccccc43)C2C(=O)NCC23CC4CC(CC(C4)C2)C3)cc(C(=O)O)c1 (single isomer, unassigned) [Example 26, cis-7-(1R-(3,5-dicarboxyphenylaminocarbonyl)-2-(4-hydroxyphenyl)-ethylaminocarbonyl)-8-(1-adamantanemethylaminocarbonyl) -2,3,5,6-dibenzobicyclo [2.2.2]octane]
Kb (gastrin): 0.158 µM

O=C(O)c1cc(NC(=O)[C@@H](Cc2ccc(O)cc2)NC(=O)C2C3c4ccccc4C(c4ccccc43)C2C(=O)NCC23CC4CC(CC(C4)C2)C3)cc(C(=O)O)c1 (single isomer, unassigned) [Example 27, cis-7-(1R-(3,5-dicarboxyphenylaminocarbonyl)-2-(4-hydroxyphenyl)ethylaminocarbonyl)-8-(1-adamantanemethylaminocarbonyl)-2,3,5,6-dibenzobicyclo [2.2.2]octane]
Kb (gastrin): 0.00794 µM
Ki (CCKB receptor): 0.0158 µM

O=C(O)c1cc(NC(=O)[C@H](Cc2ccccc2)NC(=O)C2C3c4ccccc4C(c4ccccc43)C2C(=O)NCC2CCCCCC2)cc(C(=O)O)c1 (single isomer, unassigned) [Example 28, cis-7-(1S-(3,5-dicarboxyphenylaminocarbonyl) -2-phenylethylaminocarbonyl)-8-(1-cycloheptane-methylaminocarbonyl) -2,3,5,6-dibenzobicyclo[2.2.2]octane]
Kb (gastrin): 0.00398 µM
Ki (CCKB receptor): 0.00398 µM

O=C(O)c1cc(NC(=O)[C@H](Cc2ccccc2)NC(=O)C2C3c4ccccc4C(c4ccccc43)C2C(=O)NCC2CCCCCC2)cc(C(=O)O)c1 (single isomer, unassigned) [Example 29, cis-7-(1S-(3,5-dicarboxyphenylaminocarbonyl) -2-phenylethylaminocarbonyl) -8-(cycloheptanemethyl-aminocarbonyl)-2,3,5,6-dibenzobicyclo[2.2.2]octane]
Kb (gastrin): 0.1 µM
Ki (CCKB receptor): 0.0398 µM

O=C(O)c1ccc(NC(=O)[C@H](Cc2ccccc2)NC(=O)C2C3c4ccccc4C(c4ccccc43)C2C(=O)NCC23CC4CC(CC(C4)C2)C3)cc1 (single isomer, unassigned) [Example 46, cis-7-(1S-(4-carboxy-phenylaminocarbonyl) -2-phenylethylaminocarbonyl)-8-(1-adamantane-methylaminocarbonyl) -2,3,5,6-dibenzobicyclo[2.2.2]octane]
Kb (gastrin): 2 µM
Ki (CCKB receptor): 0.158 µM

O=C(O)c1ccc(NC(=O)[C@H](Cc2ccccc2)NC(=O)C2C3c4ccccc4C(c4ccccc43)C2C(=O)NCC23CC4CC(CC(C4)C2)C3)cc1 (single isomer, unassigned) [Example 47]
Ki (CCKB receptor): 0.126 µM

COC(=O)c1cc(NC(=O)[C@H](Cc2ccccc2)NC(=O)C2C3c4ccccc4C(c4ccccc43)C2C(=O)NCC23CC4CC(CC(C4)C2)C3)cc(C(=O)OC)c1 (single isomer, unassigned) [Example 48]
Ki (CCKB receptor): 10 µM

O=C(O)c1cccc(NC(=O)[C@H](Cc2cccs2)NC(=O)C2C3c4ccccc4C(c4ccccc43)C2C(=O)NCc2cccc3ccccc23)c1 (single isomer, unassigned) [Example 58, cis-7-(1S-(3-carboxyphenylaminocarbonyl)-2-(2-thiophenyl)ethylaminocarbonyl)-8-(1-naphthalenemethylaminocarbonyl)-2,3,5,6-dibenzobicyclo[2.2.2]octane]
Ki (CCKB receptor): 0.501 µM

O=C(O)c1cccc(NC(=O)[C@H](Cc2ccccc2)NC(=O)C2C3c4ccccc4C(c4ccccc43)C2C(=O)NCc2cccc3ccccc23)c1 (single isomer, unassigned) [Example 60, cis-7-(1S-(3-carboxyphenylaminocarbonyl)-2-phenylethylaminocarbonyl)-8-(1-naphthalenemethylaminocarbonyl)-2,3,5,6-dibenzobicyclo [2.2.2]octane]
Ki (CCKB receptor): 0.398 µM

O=C(NCC12CC3CC(CC(C3)C1)C2)C1C2c3ccccc3C(c3ccccc32)C1C(=O)N[C@@H](Cc1ccccc1)C(=O)Nc1cc(-c2nnn[nH]2)cc(-c2nnn[nH]2)c1 (stereo partly drawn) [Example 44, cis-7-(1S-(3,5-ditetrazolylphenylaminocarbonyl) -2-phenylethylaminocarbonyl) -8-(1-adamantanemethylaminocarbonyl)-2,3,5,6-dibenzobicyclo[2.2.2] octane]
Gastrin pKB (gastrin; 60 min): 6.9
CCKB pKi (CCKB receptor): 6.5

cis-7-(1S-(3-carboxyphenylaminocarbonyl)-2- (2-thiophenyl)ethylaminocarbonyl)-8-(1-naphthalenemethylaminocarbonyl) -2,3,5,6-dibenzobicyclo[2.2.2]octane [Example 57]
CCKB pKi (CCKB receptor): 7.2

cis-7-(1S-(3-carboxyphenylaminocarbonyl)-2-phenylethylaminocarbonyl)-8-(1-naphthalenemethylaminocarbonyl)-2,3,5,6-dibenzobicyclo[2.2.2]octane [Example 59]
CCKB pKi (CCKB receptor): 7.2
